Measurements as given in ChEMBL document CHEMBL3745701, “Bioactive minor components of the total salvianolic acids injection prepared from Salvia miltiorrhiza Bge” (Bioorg Med Chem Lett, 2016).

Columns and labels:
[1] = Antioxidant activity assessed as DPPH radical scavenging activity at 0.05 mM after 30 mins; assay type: physicochemical; details: 0.5 h, 50 µM
[2] = Antioxidant activity assessed as DPPH radical scavenging activity at 0.125 mM after 30 mins; assay type: physicochemical; details: 0.5 h, 125 µM
[3] = Antioxidant activity assessed as DPPH radical scavenging activity at 0.5 mM after 30 mins; assay type: physicochemical; details: 0.5 h, 500 µM
[4] = Antioxidant activity assessed as DPPH radical scavenging activity at 2 mM after 30 mins; assay type: physicochemical; details: 0.5 h, 2000 µM
[5] = target: NAD(P)H dehydrogenase [quinone] 1 (Mus musculus) (UniProt Q64669); assay: Induction of NQO1 activity in mouse Hepa-1c1c7 cells at 10 uM after 24 hrs by MTT assay relative to control; assay type: cell-based
NAD(P)H dehydrogenase [quinone] 1 (Mus musculus), sequence (Q64669 whole entry): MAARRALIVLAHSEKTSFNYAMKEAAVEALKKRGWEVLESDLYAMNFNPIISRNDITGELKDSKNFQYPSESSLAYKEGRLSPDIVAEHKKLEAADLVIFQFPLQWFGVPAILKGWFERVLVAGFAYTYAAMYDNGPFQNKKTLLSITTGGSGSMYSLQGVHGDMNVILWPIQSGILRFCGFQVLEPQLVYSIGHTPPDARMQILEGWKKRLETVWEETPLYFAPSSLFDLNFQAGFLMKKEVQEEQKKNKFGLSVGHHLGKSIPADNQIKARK

[6] = Cytotoxicity against mouse Hepa-1c1c7 cells assessed as cell viability at 10 uM after 24 hrs by crystal violet staining-based assay; details: read-out: Activity
[7] = target: NAD(P)H dehydrogenase [quinone] 1 (Mus musculus) (UniProt Q64669); assay: Induction of NQO1 activity in mouse Hepa-1c1c7 cells at 20 uM after 24 hrs by MTT assay relative to control; assay type: cell-based
[8] = Cytotoxicity against mouse Hepa-1c1c7 cells assessed as cell viability at 20 uM after 24 hrs by crystal violet staining-based assay; details: read-out: Activity

Row | SMILES | inhibition (INH) [1] | inhibition (INH) [2] | inhibition (INH) [3] | inhibition (INH) [4] | fold change (FC) [5] | viability at 24 h, 10 µM [6] | fold change (FC) [7] | viability at 24 h, 20 µM [8]
1 | O=C1O[C@H]([C@@H](O)CO)C(O)=C1O [ASCORBIC ACID] | 26% | 31.8% | 58.5% | 74.9% |  |  |  | 
2 | O=c1cc(-c2ccc(Br)cc2)oc2ccccc12 |  |  |  |  | 2.9 | 109% |  | 
3 | O=C(/C=C/c1ccc(O)c2c1[C@@H](C(=O)O[C@@H](Cc1ccc(O)c(O)c1)C(=O)O)[C@H](c1ccc(O)c(O)c1)O2)O[C@@H](Cc1ccc(O)c(O)c1)C(=O)O | 42.1% | 64.9% | 77.1% | 84.3% | 1.2 | 97% | 1.7 | 82%
4 | O=C(/C=C/c1ccc(O)c2c1[C@@H](C(=O)O[C@H](Cc1ccc(O)c(O)c1)C(=O)O)[C@H](c1ccc(O)c(O)c1)O2)O[C@H](Cc1ccc(O)c(O)c1)C(=O)O | 37.6% | 60.2% | 64.1% | 84.7% | 1 | 85% | 1.4 | 79%
5 | O=C(/C=C/c1ccc(O)c(O)c1/C(=C/c1ccc(O)c(O)c1)C(=O)O[C@@H](Cc1ccc(O)c(O)c1)C(=O)O)O[C@@H](Cc1ccc(O)c(O)c1)C(=O)O | 4.4% | 8.1% | 14.8% | 53.6% | 1.4 | 94% | 2.6 | 88%
